“Also recorded” adds a separate entry of the source. Read-outs that look alike come from different tables or passages of the source.
Legend:
[1] = Locomotor activity of rats (light beam breaks); conditions: for effects on locomotor activity: monitored 2 hours after injection; for effects on locomotor activity (positive control): varying doses IP
Procedure: The Locomotor Activity Index is the total number of beam breaks during the trial divided by 1000.
Locomotor activity was monitored after injection for 2 hours.

NR1/NR2A [2] = biological target: T1, NR1/NR2A (Rattus norvegicus, UniProt P35439+Q00959); conditions: FIG. 4
Procedure: Stage V and VI oocytes were surgically removed from the ovaries of large, well-fed and healthy Xenopus laevis anesthetized with 3-amino-benzoic acid ethyl ester (1 gm/l). Clusters of oocytes were incubated with 292 U/ml Worthington (Freehold, N.J.) type IV collagenase or 1.3 mg/ml collagenase (Life Technologies, Gaithersburg, Md.; 17018-029) for 2 hr in Ca2+-free solution comprised of (in mM) 115 NaCl, 2.5 KCl, and 10 HEPES, pH 7.5, with slow agitation to remove the follicular cell layer. Oocytes were then washed extensively in the same solution supplemented with 1.8 mM CaCl2 and maintained in Barth's solution comprised of (in mM): 88 NaCl, 1 KCl, 24 NaHCO3, 10 HEPES, 0.82 MgSO4, 0.33 Ca(NO3)2, and 0.91 CaCl2 and supplemented with 100 ug/ml gentamycin, 40 ug/ml streptomycin, and 50 ug/ml penicillin. Oocytes were manually defolliculated and injected within 24 hr of isolation with 5 ng of NR1 subunit and 10 ng of NR2 subunit in a 50 nl volume, and incubated in Barth's solution at 18° C. for 3-7 d. Glass injection pipettes had tip sizes ranging from 10-20 microns, and were backfilled with mineral oil.
These stock solutions were subsequently diluted to the appropriate concentration range in a working solution comprised of 90 mM NaCl, 3 mM KCl, 5 mM HEPES, 0.5 mM BaCl2, 10 uM EDTA, 100 uM glutamate, 50 uM glycine (pH either 6.9 or 7.6 adjusted with NAOH or HCl as appropriate). […]

NR1/NR2A [3] = biological target: T1, NR1/NR2A; assay: NMDA receptor mediated currents, NR1/NR2A; type: cell-based; set-up: expressed in transfected cells; conditions: 3 uM
kainate receptors = assay: Two electrode voltage clamp, Xenopus oocytes injected with kainate receptor subunits; type: cell-based; conditions: 3 uM coadministered with domoate
Procedure: (§1) Glutamate or domoate induced current recordings were performed using two electrode voltage clamp, and 3 uM of Compound 93-4 coadministered with agonist (glutamate for AMPA receptors, domoate for kainate receptors).

AMPA receptors = assay: Two electrode voltage clamp, Xenopus oocytes injected with AMPA receptor subunits; type: cell-based; conditions: 3 uM coadministered with glutamate
Procedure: as §1

NR1/NR2D = biological target: T2, NR1/NR2D (Rattus norvegicus, UniProt P35439+Q62645); assay: NMDA receptor mediated currents, NR1/NR2D; type: cell-based; conditions: 3 uM
T2 construct: expressed in transfected cells

NR1/NR2B = biological target: T3, NR1/NR2B (Rattus norvegicus, UniProt P35439+Q00960); assay: NMDA receptor mediated currents, NR1/NR2B; type: cell-based; conditions: 3 uM; NR1/NR2B subunits
T3 construct: expressed in transfected cells

[4] = Spinal Nerve Ligation (SNL) model, mechanical allodynia (von Frey); type: in vivo, Sprague-Dawley rats; conditions: for Injured paw - von Frey threshold: mean ± SEM
Procedure: Animals: Male Sprague-Dawley rats (Hsd:Sprague-Dawley®™SD®™, Harlan, Indianapolis, Ind., U.S.A.) weighing 100±10 g on surgery day and 250±10 g on testing day were housed three per cage. Animals had free access to food and water and were maintained on a 12:12 h light/dark schedule. The animal colony was maintained at 21° C. and 60% humidity. All experiments were conducted in accordance with the International Association for the Study of Pain guidelines and were approved by the University of Minnesota Animal Care and Use Committee.
Drugs and dosing solutions: The drugs were dissolved in 1% v/v DMSO and 66% v/v PEG 400 in distilled water. Compounds were administered by i.p. route.
Induction of chronic neuropathic pain: The Spinal Nerve Ligation (SNL) model (Kim and Chung 1992 Pain 50:355-63.) was used to induce chronic neuropathic pain. The animals were anesthetized with isoflurane, the left […] transverse process was removed, and the L5 and L6 spinal nerves were tightly ligated with 6-0 silk suture. The wound was then closed with internal sutures and external staples. Wound clips were removed 10 days following surgery.
Mechanical allodynia testing: Baseline and post-treatment values for non-noxious mechanical sensitivity were evaluated using 8 Semmes-Weinstein filaments (Stoelting, Wood Dale, Ill., USA) with varying stiffness (0.4, 0.7, 1.2, 2.0, 3.6, 5.5, 8.5, and 15 g) according to the up-down method (Chaplan, Bach et al. 1994 J Neurosci Methods 53: 55-63). Animals were placed on a perforated metallic platform and allowed to acclimate to their surroundings for a minimum of 30 minutes before testing. The mean and standard error of the mean (SEM) were determined for each animal in each treatment group. Since this stimulus is normally not considered painful, significant injury-induced increases in responsiveness in this test are interpreted as a measure of mechanical allodynia.
(§2) Experimental design: von Frey baseline measurements were made 30 minutes and 24 hours prior to drug administration respectively. Additional von Frey measurements were made at 30, 60, 120 and 240 min. The timeline for testing is summarized below. The experimental groups were: ·vehicle (1% DMSO+66% PEG 400 in distilled water, i.p., 4 ml/kg, n=10)·30 mg/kg Compound 93-31 test (i.p., 4 ml/kg, n=10)·100 mg/kg Compound 93-31 test (i.p., 4 ml/kg, n=10)·30 mg/kg Compound 93-97 test (i.p., 4 ml/kg, n=10)·100 mg/kg Compound 93-97 test (i.p., 4 ml/kg, n=10)·100 mg/kg Gabapentin (i.p., 4 ml/kg, n=12) (Total rats: 62). [drawing 42]
Data analysis: Statistical analyses were conducted using Prism™ 4.01 (GraphPad, San Diego, Calif., USA). Mechanical allodynia of the injured paw was determined by comparing values observed in the contralateral and ipsilateral paws within the vehicle group. Stability of vehicle group injured paw values over time was tested using the Friedman two-way analysis of variance by rank. Drug effect was analyzed at each time point by carrying out a Kruskal-Wallis one-way analysis of variance by rank followed by a Dunn's post hoc test.
Testing for mechanical allodynia (von Frey) was initiated 14 days after SNL surgery. Tests were performed on both injured (ipsilateral) and normal (contralateral) paws at baseline (30 minutes before drug administration) and 30, 60, 120 and 240 minutes after a single drug administration.

[5] = Side effects observed in the SNL study; type: in vivo, Sprague-Dawley rats
Procedure: as §2
The side effects observed were writhing and stretching (8 observations). These side effects were most commonly seen for the first few minutes (˜5 minutes) following i.p. drug administration. […] Some side effects were observed while measuring the endpoints. The most common was stretching/writhing which may be a sign of some visceral pain or hypersensitivity. […] It seems likely to be associated with i.p. administration of the vehicle in a subset of animals. This seemed relatively rare, short lived (<5 min), and the magnitude was not large enough to interfere with measurement of the endpoint.

[6] = rats; Dogan et al.; cited from earlier work
[7] = cats; highest dose tested; Gotti et al.; cited from earlier work
[8] = system: primary cultures of rat cerebral cortex; conditions: pH 6.5 vs pH 7.5; Mott et al. 1998; cited from earlier work
[9] = cats and rats; highest dose tested; Gotti et al.; cited from earlier work

T1 sequence (Q00959 23-1464, other chains not shown): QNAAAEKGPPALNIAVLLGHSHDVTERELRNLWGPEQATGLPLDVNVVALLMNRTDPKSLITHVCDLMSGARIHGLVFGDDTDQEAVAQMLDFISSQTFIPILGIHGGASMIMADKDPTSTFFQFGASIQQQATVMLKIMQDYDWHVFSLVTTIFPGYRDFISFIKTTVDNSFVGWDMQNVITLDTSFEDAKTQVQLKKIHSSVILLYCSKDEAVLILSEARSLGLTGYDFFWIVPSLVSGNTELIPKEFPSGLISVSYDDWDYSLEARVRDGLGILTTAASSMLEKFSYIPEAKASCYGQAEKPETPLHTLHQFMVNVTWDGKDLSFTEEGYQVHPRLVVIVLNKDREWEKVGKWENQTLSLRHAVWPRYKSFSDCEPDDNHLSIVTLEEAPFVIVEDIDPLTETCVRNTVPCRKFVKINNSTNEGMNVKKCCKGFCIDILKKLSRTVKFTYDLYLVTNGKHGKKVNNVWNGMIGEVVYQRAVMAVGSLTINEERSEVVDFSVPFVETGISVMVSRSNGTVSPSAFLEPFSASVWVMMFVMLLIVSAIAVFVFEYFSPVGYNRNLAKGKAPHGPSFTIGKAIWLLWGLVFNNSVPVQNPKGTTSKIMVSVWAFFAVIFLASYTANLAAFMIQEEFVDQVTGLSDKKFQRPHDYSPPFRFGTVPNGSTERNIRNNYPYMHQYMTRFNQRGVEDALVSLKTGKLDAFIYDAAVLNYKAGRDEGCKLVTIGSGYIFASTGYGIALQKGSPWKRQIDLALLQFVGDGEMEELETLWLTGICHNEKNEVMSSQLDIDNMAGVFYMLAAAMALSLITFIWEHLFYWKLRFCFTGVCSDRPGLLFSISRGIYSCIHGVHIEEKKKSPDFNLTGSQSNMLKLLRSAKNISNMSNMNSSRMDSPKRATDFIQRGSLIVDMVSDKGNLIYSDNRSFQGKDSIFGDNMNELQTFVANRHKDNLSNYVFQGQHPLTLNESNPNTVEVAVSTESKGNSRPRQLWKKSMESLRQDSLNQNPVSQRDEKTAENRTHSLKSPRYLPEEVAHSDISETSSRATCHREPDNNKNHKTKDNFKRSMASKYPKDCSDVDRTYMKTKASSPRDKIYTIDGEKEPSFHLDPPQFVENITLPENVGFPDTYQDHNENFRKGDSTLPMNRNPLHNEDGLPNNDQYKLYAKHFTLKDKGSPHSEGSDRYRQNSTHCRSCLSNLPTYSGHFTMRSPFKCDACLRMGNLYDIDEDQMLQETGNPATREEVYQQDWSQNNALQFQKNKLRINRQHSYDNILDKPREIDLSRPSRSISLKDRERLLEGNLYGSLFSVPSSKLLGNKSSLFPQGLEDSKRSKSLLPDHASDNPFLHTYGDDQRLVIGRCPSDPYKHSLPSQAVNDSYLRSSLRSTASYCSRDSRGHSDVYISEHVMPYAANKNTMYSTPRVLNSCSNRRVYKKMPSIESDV
T2 sequence (Q62645 28-1323, other chains not shown): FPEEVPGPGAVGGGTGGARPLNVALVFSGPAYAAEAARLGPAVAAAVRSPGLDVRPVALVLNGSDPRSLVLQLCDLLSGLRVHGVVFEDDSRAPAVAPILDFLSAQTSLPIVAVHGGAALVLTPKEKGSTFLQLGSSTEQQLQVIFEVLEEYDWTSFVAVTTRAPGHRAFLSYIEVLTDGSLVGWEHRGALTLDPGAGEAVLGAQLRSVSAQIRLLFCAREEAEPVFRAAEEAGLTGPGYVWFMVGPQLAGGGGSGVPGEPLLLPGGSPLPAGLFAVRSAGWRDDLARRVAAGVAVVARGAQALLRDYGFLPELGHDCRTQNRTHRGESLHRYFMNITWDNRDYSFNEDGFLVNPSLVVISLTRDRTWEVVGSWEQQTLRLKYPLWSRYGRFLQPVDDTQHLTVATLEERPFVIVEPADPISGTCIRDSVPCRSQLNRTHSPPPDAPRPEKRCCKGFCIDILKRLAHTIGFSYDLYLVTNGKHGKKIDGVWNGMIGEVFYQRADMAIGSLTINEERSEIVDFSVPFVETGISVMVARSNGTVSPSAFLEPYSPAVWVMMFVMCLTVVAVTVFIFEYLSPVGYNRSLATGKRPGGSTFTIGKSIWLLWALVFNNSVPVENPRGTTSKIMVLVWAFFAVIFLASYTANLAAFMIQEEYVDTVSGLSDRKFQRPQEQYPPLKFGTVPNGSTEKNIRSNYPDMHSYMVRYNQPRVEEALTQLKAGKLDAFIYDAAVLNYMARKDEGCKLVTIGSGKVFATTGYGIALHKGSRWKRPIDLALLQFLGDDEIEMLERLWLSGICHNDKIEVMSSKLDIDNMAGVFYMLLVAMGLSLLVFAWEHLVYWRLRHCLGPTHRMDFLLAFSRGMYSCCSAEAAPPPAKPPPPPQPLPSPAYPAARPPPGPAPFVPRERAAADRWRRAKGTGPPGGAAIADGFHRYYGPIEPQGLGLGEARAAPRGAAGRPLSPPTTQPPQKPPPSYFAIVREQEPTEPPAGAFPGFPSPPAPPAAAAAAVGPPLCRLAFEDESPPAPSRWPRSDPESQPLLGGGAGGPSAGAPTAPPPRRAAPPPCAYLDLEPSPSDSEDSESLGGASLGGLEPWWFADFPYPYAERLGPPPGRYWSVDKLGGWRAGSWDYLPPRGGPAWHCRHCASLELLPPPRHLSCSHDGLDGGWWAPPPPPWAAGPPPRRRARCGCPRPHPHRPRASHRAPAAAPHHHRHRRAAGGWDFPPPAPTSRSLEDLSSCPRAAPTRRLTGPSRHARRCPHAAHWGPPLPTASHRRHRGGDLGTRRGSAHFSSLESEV
T3 sequence (Q00960 27-1482, other chains not shown): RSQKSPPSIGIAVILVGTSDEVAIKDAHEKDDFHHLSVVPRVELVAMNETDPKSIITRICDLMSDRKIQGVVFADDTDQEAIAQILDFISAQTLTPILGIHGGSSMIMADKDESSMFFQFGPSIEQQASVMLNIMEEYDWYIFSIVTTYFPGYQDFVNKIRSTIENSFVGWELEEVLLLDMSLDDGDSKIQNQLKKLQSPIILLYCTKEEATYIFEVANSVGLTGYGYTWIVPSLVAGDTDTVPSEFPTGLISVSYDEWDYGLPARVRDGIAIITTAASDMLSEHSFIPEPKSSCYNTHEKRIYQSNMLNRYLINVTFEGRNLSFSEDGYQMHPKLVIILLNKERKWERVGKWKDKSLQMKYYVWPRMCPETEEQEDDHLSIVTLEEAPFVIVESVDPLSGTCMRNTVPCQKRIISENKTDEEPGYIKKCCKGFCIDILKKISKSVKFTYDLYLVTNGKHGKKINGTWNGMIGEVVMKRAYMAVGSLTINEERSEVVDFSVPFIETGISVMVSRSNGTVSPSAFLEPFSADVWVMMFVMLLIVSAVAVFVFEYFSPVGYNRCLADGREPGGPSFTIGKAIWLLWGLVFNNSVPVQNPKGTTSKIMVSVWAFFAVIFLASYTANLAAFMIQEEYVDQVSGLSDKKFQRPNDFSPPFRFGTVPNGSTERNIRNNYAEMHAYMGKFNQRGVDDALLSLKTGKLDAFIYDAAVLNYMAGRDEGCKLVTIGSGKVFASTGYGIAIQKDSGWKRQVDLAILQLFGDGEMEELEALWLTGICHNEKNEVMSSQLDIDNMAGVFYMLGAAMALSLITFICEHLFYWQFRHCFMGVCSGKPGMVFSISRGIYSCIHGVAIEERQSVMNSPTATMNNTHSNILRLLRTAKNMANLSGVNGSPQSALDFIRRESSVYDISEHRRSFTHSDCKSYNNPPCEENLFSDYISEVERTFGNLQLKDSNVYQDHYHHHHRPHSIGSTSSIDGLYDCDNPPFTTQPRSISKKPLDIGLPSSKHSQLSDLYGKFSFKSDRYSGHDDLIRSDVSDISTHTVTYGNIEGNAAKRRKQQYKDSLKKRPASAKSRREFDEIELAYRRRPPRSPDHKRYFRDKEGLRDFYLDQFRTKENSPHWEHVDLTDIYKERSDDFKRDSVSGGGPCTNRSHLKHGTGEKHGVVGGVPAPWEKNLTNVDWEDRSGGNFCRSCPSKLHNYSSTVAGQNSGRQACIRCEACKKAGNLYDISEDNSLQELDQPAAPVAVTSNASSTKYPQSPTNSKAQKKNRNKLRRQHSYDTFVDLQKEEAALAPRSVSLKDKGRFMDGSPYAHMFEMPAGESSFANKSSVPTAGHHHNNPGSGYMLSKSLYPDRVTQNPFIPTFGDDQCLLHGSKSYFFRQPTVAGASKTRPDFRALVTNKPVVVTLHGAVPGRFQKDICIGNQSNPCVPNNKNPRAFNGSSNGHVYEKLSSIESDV

With C[C@@]12N[C@@H](Cc3ccccc31)c1ccccc12 [(−)MK801, reference compound] the “fold less potent than (+)MK801 in causing the induction of locomotor activity” value ([1]; compared to vehicle injected control animals) was “at least 10 fold” and the “mean within the shaded area (criteria for improved drug performance) for NR1/NR2A” value (NR1/NR2A [2]) was “fall within the shaded area”.

For CS(=O)(=O)Nc1ccc(OC[C@@H](O)CNCCc2ccc(Cl)c(Cl)c2)cc1 [Compound 93-4], the “inhibiting NMDA receptor mediated currents” value (NR1/NR2A [3]) was “not NR1/NR2A”, the “reduction in the agonist induced response” value (kainate receptors) was “No reduction” and the “reduction in the agonist induced response” value (AMPA receptors) was “No reduction”. For the same compound, the “effects on locomotor activity” value ([1]; 3-300 mg/kg IP) was “no significant effects”, the “inhibiting NMDA receptor mediated currents” value (NR1/NR2D) was “not NR1/NR2A or NR1/NR2D” and the “inhibiting NMDA receptor mediated currents” value (NR1/NR2B) was “effective at inhibiting”.

In the case of CCN(CCc1ccc(Cl)c(Cl)c1)C[C@H](O)COc1ccc(NS(C)(=O)=O)cc1 [Compound 93-5], the “effects on locomotor activity” value ([1]; 3-300 mg/kg IP) is reported as “no significant effects”.

With CS(=O)(=O)Nc1ccc(OC[C@@H](O)CN(CCO)CCc2ccc(Cl)c(Cl)c2)cc1 [Compound 93-8] the “effects on locomotor activity” value ([1]; 30-300 mg/kg IP) was “no significant effects”.

With CCCCN(CCc1ccc(Cl)c(Cl)c1)C[C@H](O)COc1ccc(NS(C)(=O)=O)cc1 [Compound 93-31] the “analgesic effect, injured paw” value ([4]; 30 mg/kg i.p., any time point studied) was “no analgesic effect”, the “Injured paw - von Frey threshold” value ([4]; 30 mg/kg i.p., 30 min) was 1.9 ± 0.3 and the “Injured paw - von Frey threshold” value ([4]; 30 mg/kg i.p., 60 min) was 1.7 ± 0.1. For the same compound, the “Injured paw - von Frey threshold” value ([4]; 30 mg/kg i.p., 120 min) was 0.8 ± 0.2, the “Injured paw - von Frey threshold” value ([4]; 30 mg/kg i.p., 240 min) was 1.1 ± 0.3 and the “Injured paw - von Frey threshold” value ([4]; 30 mg/kg i.p., Baseline) was 2.4 ± 0.4. For the same compound, the “analgesia / attenuation of mechanical allodynia, injured paw” value ([4]; 100 mg/kg i.p.) was “observable analgesia at 30 and 60 min; also recorded: appeared to attenuate mechanical allodynia; also recorded: attenuated mechanical allodynia”, the duration of action ([4]; 100 mg/kg i.p.) was 60 min and the onset ([4]; 100 mg/kg i.p.) was 30 min. The “peak threshold relative to the normal paw” value ([4]; 100 mg/kg i.p.) was “approximately half of that seen in the normal paw”, the “Injured paw - von Frey threshold” value ([4]; 100 mg/kg i.p., 30 min) was 9.3 ± 1.5 and the “Injured paw - von Frey threshold” value ([4]; 100 mg/kg i.p., 60 min) was 8.9 ± 1.7. The “Injured paw - von Frey threshold” value ([4]; 100 mg/kg i.p., 120 min) was 1.9 ± 0.3, the “Injured paw - von Frey threshold” value ([4]; 100 mg/kg i.p., 240 min) was 0.8 ± 0.2 and the “Injured paw - von Frey threshold” value ([4]; 100 mg/kg i.p., Baseline) was 1.7 ± 0.3. For the same compound, the “effect on von Frey thresholds measured in the normal paw” value ([4]; 30 and 100 mg/kg i.p.) was “no effect on the normal paw”, the ED50 ([4]; Rattus norvegicus, ip, assuming complete reversal may be achieved with higher doses) was about 100 mg/kg and the “effects on locomotor activity” value ([1]; 3-300 mg/kg IP) was “no significant effects”. The “effect on locomotor activity index” value ([1]; IP, doses up to 300 mg/kg, FIG. 5) was “no significant effect” and the “Side Effects: stretching/writhing (animals affected/group)” value (from here on “Side Effects: stretching/writhing”) ([5]; 30 mg/kg i.p.) was 0/10 stretching/writhing.

With CS(=O)(=O)Nc1ccc(OC[C@H](O)CN(CCc2ccc(Cl)c(Cl)c2)Cc2ccccc2O)cc1 [Compound 93-40] the “effects on locomotor activity” value ([1]; 30 mg/kg IP) was “no significant effects”.

In the case of CS(=O)(=O)Nc1ccc(OCC(O)CN(CCc2ccc(Cl)c(Cl)c2)Cc2cccc(O)c2)cc1 (stereo not shown) [Compound 93-41], the “effects on locomotor activity” value ([1]; 30-300 mg/kg IP) is reported as “no significant effects”.

With CC(C)CN(CCc1ccc(Cl)c(Cl)c1)C[C@H](O)COc1ccc(NS(C)(=O)=O)cc1 [Compound 93-97] the “Injured paw - von Frey threshold” value ([4]; 30 mg/kg i.p., 30 min) was 1.6 ± 0.3, the “Injured paw - von Frey threshold” value ([4]; 30 mg/kg i.p., 60 min) was 1.1 ± 0.1 and the “Injured paw - von Frey threshold” value ([4]; 30 mg/kg i.p., 120 min) was 0.9 ± 0.1. For the same compound, the “Injured paw - von Frey threshold” value ([4]; 30 mg/kg i.p., 240 min) was 1.0 ± 0.2, the “Injured paw - von Frey threshold” value ([4]; 30 mg/kg i.p., Baseline) was 1.9 ± 0.2 and the “Injured paw - von Frey threshold” value ([4]; 100 mg/kg i.p., 30 min) was 1.1 ± 0.2. For the same compound, the “Injured paw - von Frey threshold” value ([4]; 100 mg/kg i.p., 60 min) was 1.4 ± 0.3, the “Injured paw - von Frey threshold” value ([4]; 100 mg/kg i.p., 120 min) was 1.0 ± 0.1 and the “Injured paw - von Frey threshold” value ([4]; 100 mg/kg i.p., 240 min) was 0.8 ± 0.2. For the same compound, the “Injured paw - von Frey threshold” value ([4]; 100 mg/kg i.p., Baseline) was 1.2 ± 0.1, the “effect on von Frey thresholds measured in the normal paw” value ([4]; 30 and 100 mg/kg i.p.) was “no effect on normal paw” and the “analgesic effect / attenuation of mechanical allodynia, injured paw” value ([4]; 30 and 100 mg/kg i.p., any time point studied) was “no analgesic effect; also recorded: failed to attenuate mechanical allodynia”. The “Side Effects: stretching/writhing” value ([5]; 30 mg/kg i.p.) was 2/10 stretching/writhing (for first 5 min).

In the case of NCC1(CC(=O)O)CCCCC1 [Gabapentin, reference compound], the “Injured paw - von Frey threshold” value ([4]; 100 mg/kg i.p., 30 min) is reported as 6.0 ± 1.1, the “Injured paw - von Frey threshold” value ([4]; 100 mg/kg i.p., 60 min) is reported as 11.1 ± 1.5 and the “Injured paw - von Frey threshold” value ([4]; 100 mg/kg i.p., 120 min) is reported as 13.6 ± 0.9. For the same compound, the “Injured paw - von Frey threshold” value ([4]; 100 mg/kg i.p., 240 min) was 6.6 ± 1.3, the “Injured paw - von Frey threshold” value ([4]; 100 mg/kg i.p., Baseline) was 1.9 ± 0.2 and the “Side Effects: stretching/writhing” value ([5]; 100 mg/kg i.p., for first 5 min) was 1/10 stretching/writhing (for first 5 min).

In the case of CC(C(O)c1ccc(O)cc1)N1CCC(Cc2ccccc2)CC1 (stereo not shown) [Ifenprodil], the “decrease in infarct volume” value [6] is listed as 22%, the decrease infarct volume [7] is listed as 42% and the “pH dependence of potency” value [8] is listed as “more potent at lower pH (6.5) than higher pH (7.5)”.

In the case of OC(CN1CCC(Cc2ccc(F)cc2)CC1)c1ccc(Cl)cc1 (stereo not shown) [SL 82.0715], the “decrease in infarct volume” value [9] is listed as 36-48%.

For CNC1(c2ccccc2Cl)CCCCC1=O (stereo not shown) [ketamine], the “mean within the shaded area (criteria for improved drug performance) for NR1/NR2A” value (NR1/NR2A [2]) was “fall within the shaded area”.

In the case of (+)MK801 [reference compound], the “effects on locomotor activity (positive control)” value [1] is reported as “stereotypical biphasic effects on locomotor activity” and the “effects on locomotor activity (positive control)” value ([1]; listed as (+)MK-801) is reported as “induced locomotor activity at low doses and ataxia at higher doses”.

Source: US20060199864A1, “Selection of pH-dependent compounds for in vivo therapy” (priority 2004, published 2006)
